The record followed here is US20130196937A1, “AGE PRODUCTION INHIBITOR” (ORYZA OIL & FAT CHEMICAL CO., LTD., priority 2010, published 2013).

Structures are written as SMILES. Marks after values point to notes of the source that are not given here. Some results are limits rather than exact numbers.

Experiment [1] has as its system AGE production. Nature of the experiment: Test 1: AGE production inhibition (D-glucose + bovine serum albumin, fluorescence). Format: biochemical. The procedure: Put the sample solution ([…]) of the concentration of cherry-blossom extract (Example 1) and cherry-leaf extract (Example 2), as shown in the chart, below, into a phosphate buffer solution (pH: […]) containing D-glucose (10%) and into bovine serum albumin (fraction 5.1%) and leave it out at a temperature of 60 degrees centigrade for two days. Dilute the reaction solution with distilled water until the intensity of fluorescent light reaches about 500, thus determining its intensity (measurement wavelength: […]). Also, the extract is to be diluted with distilled water, and the substance, after being dissolved in DMSO (dimethyl sulphoxide), is to be diluted with a phosphate buffer solution until DMSO concentration is of 1%. Each value in Chart 1 indicates an average value with standard error of the three examples. Asterisks (*, **) mean a significant difference (i.e. *: p<0.05; **: p<0.01) between the processed samples and the unprocessed samples as determined by Dunnett's Multiple Comparison Test.

Experiment [2] has as its system normal diploid fibroblast (PDL22-32 cells). The experiment can be described thus: Test 2-2: fibroblast apoptosis caused by CML-collagen (Caspase Assay), extracts and substances. Format: cell-based, human. The protocol: 50 mg of 1 mM HCL was added to 25 mL of bovine skin-derived collagen and dissolved for two hours incubation at the temperature of 37 degrees centigrade, and was shaken as needed. Then, PBS (pH7.4 25 mL) was added to sodium cyanoborohydride (1.42 g) and to glyoxylic acid (0.9 g) and mixed so as to react at the temperature of 37 degrees centigrade for 24 hours. The reaction solution was then put into a dialysis cell of 10,000 molecular mass for a dialysis-with-water test to be conducted for one day and for a dialysis-with-PBS to be conducted for six days. CML-collagen (21 mg) was obtained by freeze-drying the dialysate.
The fibroblast (7×10^4 cells) was suspended in the D-MEM medium containing FCS (0.5%), penicillin (100 units/mL) and streptomycin ([…]) to be seeded within 96-well plates ([…]). After 24 hours of culture, the dissolved CML-collagen solution (2 mg·mL) and the sample solution ([…]) were added to the medium and cultured for 24 hours. Collagen, instead of CML-collagen, was added to Normal group.
The rate of cell survival was measured by MIT Assay. The result is shown in Chart 2. At the same time, a microscopic test was done, of which the result of formazan formation of fibroblast (×100) is shown in FIG. 2. Apoptosis was identified by measuring active caspase-3/7 by the fluorescence method, of which the result is shown in Chart 3, below. Each value of Charts 2 and 3 is indicated by the average value with standard error of the six examples. Asterisks (*, **) mean a significant difference (i.e. *: p<0.05; **: p<0.01) between the unprocessed samples and Dunnett's multiple comparison test, and f represents p<0.05 by Fisher's PLSD Test.
Here, in Test 2-2, respecting the cherry-blossom extract (Example 1), and the cherry-leaf extract (Example 2) and the seven substances contained in the cherry-blossom extract (Example 1): 1-O-(E)-Caffeoyl-β-D-glucopyranoside, 1-O-(E)-Coumaroyl-β-D-Glucopyranosideand, 1-O-(E)-Cinnamoyl-β-D-glucopyranoside, Kaempferol 3-O-3-D-glucopyranoside, Quercetin 3-O-β-D-glucopyranoside, Kaempferol 3-O-(6″-malony)-β-D-glucopyranoside and Quercetin 3-O-(6″-malony)-β-D-glucopyranoside (Examples 3 to 9), the activity against fibroblast apoptosis, caused by CML-collagen, was identified in the same way as in Test 2-1.
Also, in Test 2-2, PDL22-32 cells were used as the normal diploid fibroblast. As a target for comparison, aminoguanidine hydrochloride which is a medicine for the glycation inhibitor was examined in the same way. Each value of Chart 4 indicates an average value with standard error of the five examples. Asterisks (*, **) mean a significant difference (i.e. *: p<0.05; **: p<0.01) between processed samples and unprocessed samples with CML-collagen, determined by Dunnett's Multiple Comparison Test.

In experiment [3] the test system is human diploid fibroblast. The experiment can be described thus: Test 4: AGE production within the fibroblast processed with glyoxal (Western Blotting). Format: cell-based. To be noted: 1 and 10 mg/mL, 5 days. The protocol: Test 4 examined the activity of the cherry blossom-extract (Example 1) and of the 1-O-(E)-Caffeoyl-β-D-glucopyranoside (Example 3) against the production of AGE (carbon methyl lysine protein) within the fibroblast (human diploid fibroblast) which was processed with glyoxal.
Human diploid fibroblast (passage number 30) was suspended in a D-MEM complete culture media, and 20 mL each was seeded within a cell culture dish of 14 cm in diameter. After 48 hours of culture, samples of various concentrations and of […] of glyoxal were added to 80%-confluent cells and cultured for 5 days. After that, each sample was collected and crushed. Then, protein […] was examined by the Western Blotting method using an anti-AGE antibody to detect AGE. […] In FIG. 6, CaGlu means 1-O-(E)-Caffeoyl-β-D-glucopyranoside (Example 3).
Background: In western blotting, separated proteins are transferred to a membrane and probed.

Take `O=C(/C=C/c1ccc(O)c(O)c1)O[C@@H]1OC(CO)[C@@H](O)C(O)C1O` (stereo partly drawn) [1-O-(E)-Caffeoyl-β-D-glucopyranoside]: in experiment [1], the “IC50 of AGE production inhibition” value is greater than 300 µg/mL. In addition, the “Inhibition Ratio (%) of AGE production” value is on record as −3.3 ± 0.1% in experiment [1] (1 μg/mL); 0.9 ± 0.1% in experiment [1] (3 μg/mL); 10.7 ± 0.1** % in experiment [1] (10 μg/mL); 19.5 ± 0.3** % in experiment [1] (30 μg/mL); 25.0 ± 0.3** % in experiment [1] (100 μg/mL); 30.0 ± 0.4** % in experiment [1] (300 μg/mL). Besides, the “Inhibition Ratio (%) of AGE production” value in experiment [1] (300 μg/mL, listed as Example 3) was 30%. Also, the “Inhibition Ratio (%) of fibroblast apoptosis (Caspase Assay)” value is on record as 26.2 ± 0.5* % in experiment [2] (1 μg/mL), 37.6 ± 1.2% in experiment [2] (3 μg/mL) and 72.2 ± 2.7* % in experiment [2] (10 μg/mL). The “production of AGE within the fibroblast (anti-AGE antibody, FIG. 6)” value in experiment [3] is “inhibited the production of AGE”.
